Measured values from patent US10201531B2, “Indazolyl-oxo-isothiazole compounds” (MOCHIDA PHARMACEUTICAL CO., LTD., priority 2015, dated 2019).

These molecules were tested on Nrf2 (assay: Evaluation of Nrf2 activation ability (Nrf2d-LacZ / Keap1 HEK293 reporter, Beta-Glo luminescence)). Details: Pharmacological Test Example 1, rated A/B/C.
Format: cell-based, human
Method in brief: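 HEK293 cells stably expressing a human Nrf2 degron–LacZ fusion plus human Keap1 were exposed to compound for 3 h at 37° C. Reporter β-galactosidase was read by Beta-Glo luminescence after 1 h at RT. Activation is given as % of the signal with 100 nM CDDO-Im.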

Row | SMILES | EC50
1 | COc1nc(-c2ccc(C3CC3)nc2)ccc1-c1cnn(-c2cc(O)n[s+]2[O-])c1 (centres unmarked) [Example 437] | 1000 to 5000 nM
2 | [O-][s+]1nc(O)cc1-n1cc(C#Cc2ccc(Cl)nc2)cn1 (centres unmarked) [Example 436] | < 1000 nM
3 | Cn1c(=O)n(-c2cnn(-c3cc(O)n[s+]3[O-])c2)c2ccccc21 (centres unmarked) [Example 419] | 1000 to 5000 nM
4 | [O-][s+]1nc(O)cc1-n1cc(C2=Cc3ccccc3CC2)cn1 (centres unmarked) [Example 381] | < 1000 nM
5 | Cc1nc2cc(-c3cnn(-c4cc(O)n[s+]4[O-])c3)ccc2s1 (centres unmarked) [Example 354] | < 1000 nM
6 | Cc1cnc(-c2cnn(-c3cc(O)n[s+]3[O-])c2)c(C)n1 (centres unmarked) [Example 421] | 1000 to 5000 nM
7 | CN1C(=O)C(C)(C)c2cc(-c3cnn(-c4cc(O)n[s+]4[O-])c3)ccc21 (centres unmarked) [Example 425] | 1000 to 5000 nM
8 | [O-][s+]1nc(O)cc1-n1cc(-c2ccc(-c3ccc(N4CCCCC4)nc3)nc2)cn1 (centres unmarked) [Example 442] | < 1000 nM
9 | [O-][s+]1nc(O)cc1-n1cc(-c2cc(C(F)(F)F)cc(C(F)(F)F)c2)cn1 (centres unmarked) [Example 368] | < 1000 nM
10 | [O-][s+]1nc(O)cc1-n1cc(-c2ccc(Cl)nc2)cn1 (centres unmarked) [Example 439] | < 1000 nM
11 | N#CC1(c2ccc(-c3cnn(-c4cc(O)n[s+]4[O-])c3)cc2)CC1 (centres unmarked) [Example 369] | 1000 to 5000 nM
12 | [O-][s+]1nc(O)cc1-n1cc(-c2cccc3cccnc23)cn1 (centres unmarked) [Example 344] | < 1000 nM
13 | [O-][s+]1nc(O)cc1-n1cc(-c2cnc3ccccc3n2)cn1 (centres unmarked) [Example 408] | < 1000 nM
14 | CC1(C)C(=O)N(CC2CC2)c2ccc(-c3cnn(-c4cc(O)n[s+]4[O-])c3)cc21 (centres unmarked) [Example 430] | 1000 to 5000 nM
15 | COC(=O)c1ccccc1-c1cnn(-c2cc(O)n[s+]2[O-])c1 (centres unmarked) [Example 330] | 1000 to 5000 nM
16 | [O-][s+]1nc(O)cc1-n1cc(-c2ccc(C3CC3)nc2)cn1 (centres unmarked) [Example 323] | < 1000 nM
17 | [O-][s+]1nc(O)cc1-n1cc(-c2cccc(C(F)(F)F)c2)cn1 (centres unmarked) [Example 367] | < 1000 nM
18 | COc1cc(-c2cnn(-c3cc(O)n[s+]3[O-])c2)cc(OC)c1OC (centres unmarked) [Example 390] | 1000 to 5000 nM
19 | CN1CCOc2cc(-c3ccc(CCc4cnn(-c5cc(O)n[s+]5[O-])c4)cn3)cnc21 (centres unmarked) [Example 461] | 1000 to 5000 nM
20 | [O-][s+]1nc(O)cc1-n1cc(C2=Cc3ccccc3C2)cn1 (centres unmarked) [Example 394] | 1000 to 5000 nM
21 | [O-][s+]1nc(O)cc1-n1cc(/C=C/c2ccccc2)cn1 (centres unmarked) [Example 318] | 1000 to 5000 nM
22 | O=S(=O)(c1cccc(COc2ccc(-c3cnn(-c4cc(O)n[s+]4[O-])c3)cc2)c1)N1CCCCC1 (centres unmarked) [Example 366] | 1000 to 5000 nM
23 | [O-][s+]1nc(O)cc1-n1cc(-c2ccccn2)cn1 (centres unmarked) [Example 386] | 1000 to 5000 nM
24 | Cc1cc(OCCCS(C)(=O)=O)cc(C)c1-c1cccc(COc2ccc(-c3cnn(-c4cc(O)n[s+]4[O-])c3)cc2)c1 (centres unmarked) [Example 339] | 1000 to 5000 nM
25 | [O-][s+]1nc(O)cc1-n1cc(-c2ccc(F)nc2)cn1 (centres unmarked) [Example 443] | 1000 to 5000 nM
26 | CCOC(=O)C1CC=C(c2c(C)nn(-c3cc(O)n[s+]3[O-])c2C)CC1 (centres unmarked) [Example 317] | 1000 to 5000 nM

Same assay, conditions: rated A/B/C, Pharmacological Test Example 1

Row | SMILES | EC50
27 | [2H]c1cccc(-c2ccc3c(cnn3-c3cc(O)n[s+]3[O-])c2)n1 (centres unmarked) [Example 82] | < 1000 nM
28 | COc1cc(-c2ccc(N3CCCC3)nc2)c2cnn(-c3cc(O)n[s+]3[O-])c2c1 (centres unmarked) [Example 175] | < 1000 nM
29 | [O-][s+]1nc(O)cc1-n1ncc2c(C3=CCC(F)(F)CC3)cccc21 (centres unmarked) [Example 93] | 1000 to 5000 nM
30 | [O-][s+]1nc(O)cc1-n1ncc2nc(-c3ccc(N4CCCCC4)nc3)ccc21 (centres unmarked) [Example 241] | 1000 to 5000 nM
31 | CN1C(=O)COc2cc(-c3ccc4c(cnn4-c4cc(O)n[s+]4[O-])c3)cnc21 (centres unmarked) [Example 197] | < 1000 nM
32 | COc1cc(-c2cccc3c2cnn3-c2cc(O)n[s+]2[O-])ccn1 (centres unmarked) [Example 97] | 1000 to 5000 nM
33 | COc1cc(-c2ccc3cnn(-c4cc(O)n[s+]4[O-])c3c2)ccn1 (centres unmarked) [Example 110] | 1000 to 5000 nM
34 | [O-][s+]1nc(O)cc1-n1ncc2cc(-c3ccc(N4CCOCC4)nc3)ccc21 (centres unmarked) [Example 126] | 1000 to 5000 nM
35 | [O-][s+]1nc(O)cc1-n1ncc2c1CN(CC1CCCCC1)C2 (single isomer, unassigned) [Example 273] | < 1000 nM
36 | [O-][s+]1nc(O)cc1-n1ncc2ccc(-c3ccc(C4CC4)nc3)cc21 (centres unmarked) [Example 111] | 1000 to 5000 nM
37 | CN1CCOc2ccc(-c3ccc4c(cnn4-c4cc(O)n[s+]4[O-])c3)nc21 (centres unmarked) [Example 178] | < 1000 nM
38 | [O-][s+]1nc(O)cc1-n1ncc2cc(C3CC3)ccc21 (centres unmarked) [Example 27] | 1000 to 5000 nM
39 | COc1ncc(-c2ccc3c(cnn3-c3cc(O)n[s+]3[O-])c2)cc1Cl (centres unmarked) [Example 73] | < 1000 nM
40 | CC(C)N1CCOc2cc(-c3ccc4c(cnn4-c4cc(O)n[s+]4[O-])c3)cnc21 (centres unmarked) [Example 8] | < 1000 nM
41 | [O-][s+]1nc(O)cc1-n1ncc2cc(-c3ccccn3)ccc21 (centres unmarked) [Example 43] | < 1000 nM
42 | COc1cc(C2CC2)c2cnn(-c3cc(O)n[s+]3[O-])c2c1 (centres unmarked) [Example 183] | 1000 to 5000 nM
43 | Cc1cncc(-c2cccc3c2cnn3-c2cc(O)n[s+]2[O-])c1 (centres unmarked) [Example 100] | 1000 to 5000 nM
44 | [O-][s+]1nc(O)cc1-n1ncc2cc(-c3cnc4c(c3)OCCN4CC3CCC3)ccc21 (centres unmarked) [Example 162] | < 1000 nM
45 | [O-][s+]1nc(O)cc1-n1ncc2ccc(C3=CCC(F)(F)CC3)cc21 (centres unmarked) [Example 102] | 1000 to 5000 nM

Row | SMILES | EC50
46 | [O-][s+]1nc(O)cc1-n1cc(C2=CCC(F)(F)CC2)cn1 (centres unmarked) [Example 301] | < 1000 nM
47 | Cc1nc2c(cc1-c1ccc3c(cnn3-c3cc(O)n[s+]3[O-])c1)OCCN2C (centres unmarked) [Example 185] | < 1000 nM
48 | [O-][s+]1nc(O)cc1-n1ncc2cc(C3=CCOCC3)ccc21 (centres unmarked) [Example 42] | < 1000 nM
49 | [O-][s+]1nc(O)cc1-n1ncc2cc(-c3cnc4c(c3)OCCN4CC3CC3)ccc21 (centres unmarked) [Example 150] | < 1000 nM
50 | [O-][s+]1nc(O)cc1-n1cc(C2CCCCC2)cn1 (centres unmarked) [Example 306] | 1000 to 5000 nM
51 | [O-][s+]1nc(O)cc1-n1ncc2cc(-c3cccnc3)ncc21 (centres unmarked) [Example 235] | 1000 to 5000 nM
52 | [O-][s+]1nc(O)cc1-n1ncc2cc(-c3cncc(N4CCCC4)n3)ccc21 (centres unmarked) [Example 141] | < 1000 nM
53 | CC(=O)NC1(c2ccc(-c3ccc4c(cnn4-c4cc(O)n[s+]4[O-])c3)cc2)CC1 (centres unmarked) [Example 65] | 5000 to 10000 nM
54 | [O-][s+]1nc(O)cc1-n1ncc2cc(-c3cnc(N4CCOCC4)cn3)ccc21 (centres unmarked) [Example 142] | 1000 to 5000 nM
55 | [O-][s+]1nc(O)cc1-n1ncc2cc(-c3ccc(N4CCCC4)cn3)ccc21 (centres unmarked) [Example 139] | < 1000 nM
56 | O=C(NC1CC1)c1ccc(F)c(-c2ccc3c(cnn3-c3cc(O)n[s+]3[O-])c2)c1 (centres unmarked) [Example 63] | 5000 to 10000 nM
57 | [O-][s+]1nc(O)cc1-n1ncc2cc(-c3cnn4cccnc34)ccc21 (centres unmarked) [Example 225] | < 1000 nM
58 | COCC1CCCN1c1ccc(-c2ccc3c(cnn3-c3cc(O)n[s+]3[O-])c2)cn1 (centres unmarked) [Example 198] | < 1000 nM
59 | [O-][s+]1nc(O)cc1-n1cc2c(n1)CN(CC1CCCCC1)C2 (single isomer, unassigned) [Example 275] | 1000 to 5000 nM
60 | O=C1CCCN1c1ccc(-c2ccc3c(cnn3-c3cc(O)n[s+]3[O-])c2)cn1 (centres unmarked) [Example 186] | < 1000 nM
61 | CN1c2ncc(-c3ccc4c(cnn4-c4cc(O)n[s+]4[O-])c3)cc2OCC1(C)C (centres unmarked) [Example 213] | < 1000 nM
62 | [O-][s+]1nc(O)cc1-n1ncc2cc(-c3ccc(N4CCC(F)(F)C4)nc3)ccc21 (centres unmarked) [Example 182] | < 1000 nM
63 | [O-][s+]1nc(O)cc1-n1ncc2cc(-c3cc4c(cn3)NCCO4)ccc21 (centres unmarked) [Example 219] | < 1000 nM
64 | [O-][s+]1nc(O)cc1-n1ncc2nc(-c3ccc(N4CCCC4)nc3)ccc21 (centres unmarked) [Example 240] | 1000 to 5000 nM

Row | SMILES | EC50
65 | N#Cc1cccc(-c2ccc3c(cnn3-c3cc(O)n[s+]3[O-])c2)n1 (centres unmarked) [Example 120] | 1000 to 5000 nM
66 | COc1cc(-c2ccc3c(cnn3-c3cc(O)n[s+]3[O-])c2)ccn1 (centres unmarked) [Example 3, 5-[5-(2-methoxypyridin-4-yl)indazol-1-yl]-1-oxo-1,2-thiazol-3-ol] | < 1000 nM
67 | Cc1nn(-c2cc(O)n[s+]2[O-])c(C)c1-c1ccccc1 (centres unmarked) [Example 311] | 5000 to 10000 nM
68 | [O-][s+]1nc(O)cc1-n1ncc2cc(-c3cccc(C(F)F)n3)ccc21 (centres unmarked) [Example 116] | < 1000 nM
69 | CC(=O)Nc1ccc(-c2ccc3c(cnn3-c3cc(O)n[s+]3[O-])c2)cc1 (centres unmarked) [Example 66] | 1000 to 5000 nM
70 | O=C(C1CC1(F)F)N1CCOc2cc(-c3ccc4c(cnn4-c4cc(O)n[s+]4[O-])c3)cnc21 (centres unmarked) [Example 151] | < 1000 nM
71 | [O-][s+]1nc(O)cc1-n1ncc2cc(Cl)ccc21 (centres unmarked) [Example 12] | < 1000 nM
72 | Cn1cc(-c2ccc3c(cnn3-c3cc(O)n[s+]3[O-])c2)cn1 (centres unmarked) [Example 50] | < 1000 nM
73 | Cc1nn(-c2cc(O)n[s+]2[O-])c(C)c1I (centres unmarked) [Example 305] | 1000 to 5000 nM
74 | [O-][s+]1nc(O)cc1-n1ncc2cc(-c3ccc(N4CCCC4)nc3)ccc21 (centres unmarked) [Example 87] | 1000 to 5000 nM
75 | [O-][s+]1nc(O)cc1-n1ncc2cc(-c3cncc(N4CCCC4)c3)ccc21 (centres unmarked) [Example 135] | < 1000 nM
76 | CN1CCOc2cc(-c3ccc4c(c3)c(C3CC3)nn4-c3cc(O)n[s+]3[O-])cnc21 (centres unmarked) [Example 216] | 1000 to 5000 nM
77 | O=C(NC1CCCCC1)N1CCC(c2ccc3c(cnn3-c3cc(O)n[s+]3[O-])c2)CC1 (centres unmarked) [Example 159] | 5000 to 10000 nM
78 | Cc1cc2cnn(-c3cc(O)n[s+]3[O-])c2cc1C (centres unmarked) [Example 18] | < 1000 nM
79 | [O-][s+]1nc(O)cc1-n1cc2c(n1)CN(Cc1cccc(Oc3ccccc3)c1)C2 (centres unmarked) [Example 277] | 1000 to 5000 nM
80 | CC(C)(C)OC(=O)N1Cc2cn(-c3cc(O)n[s+]3[O-])nc2C1 (centres unmarked) [Example 246] | 1000 to 5000 nM
81 | O=C(c1ccc(-c2ccc3c(cnn3-c3cc(O)n[s+]3[O-])c2)cc1)N1CCCC1 (centres unmarked) [Example 75] | 1000 to 5000 nM
82 | Cn1nc(-c2ccc3c(cnn3-c3cc(O)n[s+]3[O-])c2)c2ccccc21 (centres unmarked) [Example 224] | < 1000 nM
83 | COc1ccc(-c2ccc3c(cnn3-c3cc(O)n[s+]3[O-])c2)c(C)n1 (centres unmarked) [Example 6] | 1000 to 5000 nM
